Experiments:
Assay type in all cases: cell-based
E. coli ATCC 25922 = assay: Antibiotic enhancement of erythromycin; details: for Erythro/E.c.: fold change, ratio between intrinsic MIC of test compound and combination MIC: erythromycin at 2.7 µM; for Erythro/E.c.: concentration required to restore erythromycin activity: erythromycin at 2.7 µM (2 µg/mL)
Description: [Worded in the source for another target; used here, by the source, with some conditions changed.] Antibiotic restoring enhancer concentrations were determined using reported protocols (see Supplementary File).
(§1) Briefly, restoring enhancer concentrations were determined with an inoculum of 5x10^5 CFU in 200 µL of MHB containing two-fold serial dilutions of each derivative in the presence of doxycycline at 4.5 […]
(§2) The lowest concentration of the polyamine
(§3) These measurements were independently repeated in triplicate.
Outer membrane permeabilization was measured using nitrocefin as a chromogenic substrate of periplasmic β-lactamase. Ten milliliters of MH broth were inoculated with 0.1 mL of an overnight culture of PAO1 bacteria and grown at 37°C until the OD600 reached 0.5. The remaining steps were performed at room temperature. Cells were recovered by centrifugation (4000 rpm for 20 min) and washed once in 20 mM potassium phosphate buffer (pH 7.2) containing MgCl2 (1 mM). After a second centrifugation, the pellet was resuspended and adjusted to OD600 of 0.5. Then, 50 µL of the desired compound was added to 100 µL of the cell suspension to obtain a final concentration varying from 3.9 µM to 250 µM. Fifty microliters of nitrocefin were then added to obtain a final concentration of 50 µg/mL. Nitrocefin hydrolysis was monitored spectrophotometrically by measuring the increase in absorbance at 490 nm. Assays were performed in 96-well plates using a M200 Pro Tecan […]
HEK293 cells were counted manually in a Neubauer hemocytometer and plated at a density of 5,000 cells/well into each well of the 384-well plates containing the 25x (2 µL) concentrated compounds [26,27]. The medium used was Dulbecco's modified Eagle’s medium (DMEM), supplemented with 10% fetal bovine serum (FBS). Cells were incubated together with the compounds for 20 h at 37 °C, 5% CO2.
(§4) To measure cytotoxicity, 5 µL (equals 100 µM final) of resazurin was added to each well after incubation and incubated for further 3 h at 37 °C with 5% CO2. After the final incubation, fluorescence intensity […]
reader. CC50 values (concentration at 50% cytotoxicity) were calculated by normalizing the fluorescence readout, with 74 µg/mL tamoxifen as negative control (0%) and normal cell growth as positive control (100%). The concentration-dependent percentage cytotoxicity was fitted to a dose–response function (using Pipeline Pilot) and CC50 values were determined.
Human whole blood was washed three times with three volumes of 0.9% NaCl and then resuspended in the same solution to a concentration of 0.5 x 10^8 cells/mL, as determined by the manual cell count in a Neubauer hemocytometer. The washed cells were then added to the 384-well compound-containing plates for a final volume of 50 µL. After a 10 min shake on a plate shaker, the plates were then incubated for 1 h at 37 °C. After incubation, the plates were centrifuged at 1,000g for 10 min to pellet cells and debris; 25 µL of the supernatant was then transferred to a polystyrene 384-well assay plate. Hemolysis was determined by measuring the supernatant absorbance at […] (OD405). The absorbance was measured using a Tecan M1000 Pro monochromator plate reader. HC10 and HC50 (concentration at 10% and 50% hemolysis, respectively) were calculated by curve fitting the inhibition values vs. log (concentration) using a sigmoidal dose–response function with variable fitting values for the top, bottom, and slope.
2.8. Real-time growth curves
Solutions of the compound at concentrations of 2, 4, and 16 µg/mL were tested each in triplicate against S. aureus ATCC 25923 [26]. Typically, in a 96-well plate were placed 10 µL of 40, 80, and 320 µg/mL stock solutions of compound, as well as 190 µL of a 5 x 10^5 CFU/mL of the selected bacterial suspension in brain heart infusion (BHI) broth. Positive controls containing only 200 µL of a 5 x 10^5 CFU/mL of bacterial suspension in BHI and negative controls containing only 200 µL of BHI broth were added. The plate was incubated at 37°C in a TECAN Spark Reader (Roche Diagnostic) and real-time […]

P. aeruginosa PAO1 [1] = assay: Nitrocefin hydrolysis assay (outer membrane permeabilization); details: polymyxin B at 98.3 μM ([…])
Description: Nitrocefin assays were conducted using reported protocols (see Supplementary File).
We also examined the ability of 9e to act as membrane disruptor of the Gram-negative bacteria P. aeruginosa PAO1 (Figure 5), using a nitrocefin colorimetric assay. This assay makes use of a chromogenic cephalosporin derivative, which in the presence of an outer membrane disruptor gains entry to the periplasm, where upon the action of β-lactamases leads to substrate hydrolysis with a detectable color change from yellow to red.
as §1, §2, §3
(§5) Outer membrane permeabilization was measured using nitrocefin as a chromogenic substrate of periplasmic β-lactamase. […] Nitrocefin hydrolysis was monitored spectrophotometrically by measuring the increase in absorbance at 490 nm. […]
(§6) HEK293 cells were counted manually in a Neubauer hemocytometer and plated at a density of 5,000 cells/well into each well of the 384-well plates containing the 25x (2 µL) concentrated compounds [26,27]. […]
as §4
reader. […] The concentration-dependent percentage cytotoxicity was fitted to a dose–response function (using Pipeline Pilot) and CC50 values were determined.
Human whole blood was washed three times with three volumes of 0.9% NaCl and then resuspended in the same solution to a concentration of 0.5 x 10^8 cells/mL, as determined by the manual cell count in a Neubauer hemocytometer. […] Hemolysis was determined by measuring the supernatant absorbance at […] (OD405). The absorbance was measured using a Tecan M1000 Pro monochromator plate reader. […]

S. aureus ATCC 25923 = assay: Real-time growth inhibition curves, S. aureus; details: optical density during 18 h culturing
Description: Real-time growth curves were determined using reported protocols (see Supplementary File).
Further investigation is required to determine the factors leading to the differences observed in the sub-MIC growth curves for the two compounds.
as §1, §2, §3, §5, §6, §4
reader. […] The concentration-dependent percentage cytotoxicity was fitted to a dose–response function (using Pipeline Pilot) and CC50 values were determined. […]

P. aeruginosa PAO1 [2] = assay: Real-time growth inhibition curves, P. aeruginosa; details: optical density during 18 h culturing

SMILES | Erythro/E.c.: fold change, ratio between intrinsic MIC of test compound and combination MIC (E. coli ATCC 25922) | Erythro/E.c.: concentration required to restore erythromycin activity (E. coli ATCC 25922) | Outer membrane perturbation (nitrocefin hydrolysis) (P. aeruginosa PAO1 [1]) | Real-time bacterial growth inhibition (S. aureus ATCC 25923) | Real-time bacterial growth inhibition (P. aeruginosa PAO1 [2])
C=C[C@]1(C)C[C@@H](OC(=O)CSCCN(CC)CC)[C@]2(C)[C@H](C)CC[C@]3(CCC(=O)[C@H]32)[C@@H](C)[C@@H]1O [Compound 2, Tiamulin, reference compound] | 0.5 | > 405 µM | failing to exhibit any detectable membrane perturbation | inhibited the growth | No such inhibition
C=C[C@]1(C)C[C@@H](OC(=O)CNCCCNCCCCNCCCNCC(=O)O[C@@H]2C[C@@](C)(C=C)[C@@H](O)[C@H](C)[C@]34CCC(=O)[C@H]3[C@@]2(C)[C@H](C)CC4)[C@]2(C)[C@H](C)CC[C@]3(CCC(=O)[C@H]32)[C@@H](C)[C@@H]1O.O=C(O)C(F)(F)F.O=C(O)C(F)(F)F.O=C(O)C(F)(F)F.O=C(O)C(F)(F)F [Compound 9a, N^1,N^1′-(Butane-1,4-diyl)bis(N^3-(2-(((3aR,4R,5R,7S,8S,9R,9aS,12R)-8-hydroxy-4,7,9,12-tetramethyl-3-oxo-7-vinyldecahydro-4,9a-propanocyclopenta [8]annulen-5-yl)oxy)-2-oxoethyl)propane-1,3-diaminium) 2,2,2-trifluoroacetate] | 2 |  |  |  | 
C=C[C@]1(C)C[C@@H](OC(=O)CNCCCNCCCCCCNCCCNCC(=O)O[C@@H]2C[C@@](C)(C=C)[C@@H](O)[C@H](C)[C@]34CCC(=O)[C@H]3[C@@]2(C)[C@H](C)CC4)[C@]2(C)[C@H](C)CC[C@]3(CCC(=O)[C@H]32)[C@@H](C)[C@@H]1O.O=C(O)C(F)(F)F.O=C(O)C(F)(F)F.O=C(O)C(F)(F)F.O=C(O)C(F)(F)F [Compound 9b, N^1,N^1′-(Hexane-1,6-diyl)bis(N^3-(2-(((3aR,4R,5R,7S,8S,9R,9aS,12R)-8-hydroxy-4,7,9,12-tetramethyl-3-oxo-7-vinyldecahydro-4,9a-propanocyclopenta [8]annulen-5-yl)oxy)-2-oxoethyl)propane-1,3-diaminium) 2,2,2-trifluoroacetate] | 1 | 8.88 µM |  |  | 
C=C[C@]1(C)C[C@@H](OC(=O)CNCCCNCCCCCCCNCCCNCC(=O)O[C@@H]2C[C@@](C)(C=C)[C@@H](O)[C@H](C)[C@]34CCC(=O)[C@H]3[C@@]2(C)[C@H](C)CC4)[C@]2(C)[C@H](C)CC[C@]3(CCC(=O)[C@H]32)[C@@H](C)[C@@H]1O.O=C(O)C(F)(F)F.O=C(O)C(F)(F)F.O=C(O)C(F)(F)F.O=C(O)C(F)(F)F [Compound 9c, N^1,N^1′-(Heptane-1,7-diyl)bis(N^3-(2-(((3aR,4R,5R,7S,8S,9R,9aS,12R)-8-hydroxy-4,7,9,12-tetramethyl-3-oxo-7-vinyldecahydro-4,9a-propanocyclopenta [8]annulen-5-yl)oxy)-2-oxoethyl)propane-1,3-diaminium) 2,2,2-trifluoroacetate] | 2 |  |  |  | 
C=C[C@]1(C)C[C@@H](OC(=O)CNCCCNCCCCCCCCNCCCNCC(=O)O[C@@H]2C[C@@](C)(C=C)[C@@H](O)[C@H](C)[C@]34CCC(=O)[C@H]3[C@@]2(C)[C@H](C)CC4)[C@]2(C)[C@H](C)CC[C@]3(CCC(=O)[C@H]32)[C@@H](C)[C@@H]1O.O=C(O)C(F)(F)F.O=C(O)C(F)(F)F.O=C(O)C(F)(F)F.O=C(O)C(F)(F)F [Compound 9d, N^1,N^1′-(Octane-1,8-diyl)bis(N^3-(2-(((3aR,4R,5R,7S,8S,9R,9aS,12R)-8-hydroxy-4,7,9,12-tetramethyl-3-oxo-7-vinyldecahydro-4,9a-propanocyclopenta [8]annulen-5-yl)oxy)-2-oxoethyl)propane-1,3-diaminium) 2,2,2-trifluoroacetate] | 2 |  |  |  | 
C=C[C@]1(C)C[C@@H](OC(=O)CNCCCNCCCCCCCCCCNCCCNCC(=O)O[C@@H]2C[C@@](C)(C=C)[C@@H](O)[C@H](C)[C@]34CCC(=O)[C@H]3[C@@]2(C)[C@H](C)CC4)[C@]2(C)[C@H](C)CC[C@]3(CCC(=O)[C@H]32)[C@@H](C)[C@@H]1O.O=C(O)C(F)(F)F.O=C(O)C(F)(F)F.O=C(O)C(F)(F)F.O=C(O)C(F)(F)F [Compound 9e, N^1,N^1′-(Decane-1,10-diyl)bis(N^3-(2-(((3aR,4R,5R,7S,8S,9R,9aS,12R)-8-hydroxy-4,7,9,12-tetramethyl-3-oxo-7-vinyldecahydro-4,9a-propanocyclopenta [8]annulen-5-yl)oxy)-2-oxoethyl)propane-1,3-diaminium) 2,2,2-trifluoroacetate] | 0.5 | 8.54 µM | inactive | inhibited the growth | No such inhibition
C=C[C@]1(C)C[C@@H](OC(=O)CNCCCNCCCCCCCCCCCCNCCCNCC(=O)O[C@@H]2C[C@@](C)(C=C)[C@@H](O)[C@H](C)[C@]34CCC(=O)[C@H]3[C@@]2(C)[C@H](C)CC4)[C@]2(C)[C@H](C)CC[C@]3(CCC(=O)[C@H]32)[C@@H](C)[C@@H]1O.O=C(O)C(F)(F)F.O=C(O)C(F)(F)F.O=C(O)C(F)(F)F.O=C(O)C(F)(F)F [Compound 9f, N^1,N^1′-(Dodecane-1,12-diyl)bis(N^3-(2-(((3aR,4R,5R,7S,8S,9R,9aS,12R)-8-hydroxy-4,7,9,12-tetramethyl-3-oxo-7-vinyldecahydro-4,9a-propanocyclopenta [8]annulen-5-yl)oxy)-2-oxoethyl)propane-1,3-diaminium) 2,2,2-trifluoroacetate] | 0.5 | 8.38 µM |  |  | 

From PMC10673369, “Preliminary SAR of Novel Pleuromutilin–Polyamine Conjugates” (Microorganisms, 2023)
